# Numbered stars: 1 amine (or outer) side, 2 acyl side, 3 side chain; on linkers, the order of the positions; unused ones are H or OH. Square brackets hold non-standard residues; d marks the D form. Peptide text beside a SMILES is read from it. X1 = Cc1nc([C@@H](Cc2ccccc2)N[*:1])c(C(=O)[*:2])s1; Orn = NCCC[C@H](N)C(=O)O
# Columns and labels:
# Staphylococcus aureus [1] = assay: Antibacterial activity against Staphylococcus aureus ATCC 49975 after 16 to 20 hrs by broth microdilution method; assay type: functional
# Erythrocyte [2] = assay: (§1) Haemolytic activity in human erythrocytes; assay type: ADME, cell-based; conditions: erythrocyte
# Staphylococcus aureus [3] = assay: Antibacterial activity against Staphylococcus aureus ATCC 29213; assay type: functional
# Escherichia coli [4] = assay: Antibacterial activity against Escherichia coli ATCC 25922; assay type: functional
# [5] = Therapeutic index, ratio of HD100 for hemolytic activity in human erythrocytes to MIC against Staphylococcus aureus ATCC 29213; assay type: toxicity, cell-based; conditions: read-out: TI
# [6] = Therapeutic index, ratio of HD100 for hemolytic activity in human erythrocytes to MIC against Pseudomonas aeruginosa ATCC 27853; assay type: toxicity, cell-based; conditions: read-out: TI
# [7] = Therapeutic index, ratio of HD100 for hemolytic activity in human erythrocytes to MIC against Escherichia coli ATCC 25922; assay type: toxicity, cell-based; conditions: read-out: TI
# Pseudomonas aeruginosa [8] = assay: Antibacterial activity against Pseudomonas aeruginosa ATCC 27853; assay type: functional
# Enterococcus faecalis [9] = assay: Antibacterial activity against Enterococcus faecalis ATCC 29212; assay type: functional
# [10] = Therapeutic index, ratio of HD100 for hemolytic activity in human erythrocytes to MIC against Enterococcus faecalis ATCC 29212; assay type: toxicity, cell-based; conditions: read-out: TI
# [11] = Haemolytic activity in human RBC after 4 hrs; assay type: ADME, cell-based, Erythrocyte; conditions: human red blood cells
# [12] = as §1; assay type: ADME, cell-based, Erythrocyte; conditions: human erythrocytes
# Staphylococcus xylosus = assay: Antibacterial activity against Staphylococcus xylosus; assay type: functional
# [13] = tested on: Staphylococcus epidermidis; assay: Antibacterial activity against Staphylococcus epidermidis; assay type: functional
# Staphylococcus aureus [14] = assay: Antibacterial activity against Staphylococcus aureus; assay type: functional
# [15] = Therapeutic index, ratio of HD100 for hemolytic activity in human RBC to MIC against Pseudomonas aeruginosa H187; assay type: toxicity; conditions: human red blood cells, read-out: TI
# [16] = Therapeutic index, ratio of HD100 for hemolytic activity in human RBC to MIC against Escherichia coli UB1005; assay type: toxicity; conditions: human red blood cells, read-out: TI
# [17] = Therapeutic index, ratio of HD100 for hemolytic activity in human RBC to MIC against Staphylococcus aureus K147; assay type: toxicity; conditions: human red blood cells, read-out: TI
# Pseudomonas aeruginosa [18] = assay: Antibacterial activity against Pseudomonas aeruginosa H187 after overnight incubation by microtiter dilution method; assay type: functional
# Enterococcus faecalis [19] = assay: Antibacterial activity against Enterococcus faecalis ATCC 29212 after overnight incubation by microtiter dilution method; assay type: functional
# [20] = Therapeutic index, ratio of HD100 for hemolytic activity in human RBC to MIC against Candida albicans; assay type: toxicity; conditions: human red blood cells, read-out: TI
# Staphylococcus aureus [21] = assay: Antibacterial activity against Staphylococcus aureus K147 after overnight incubation by microtiter dilution method; assay type: functional
# Escherichia coli [22] = assay: Antibacterial activity against Escherichia coli UB1005 after overnight incubation by microtiter dilution method; assay type: functional
# Lipopolysaccharide (LPS) = assay: Displacement of Dansyl-polymyxin from Pseudomonas aeruginosa LPS by fluorescence method; conditions: read-out: I50
# Candida albicans = assay: Antibacterial activity against Candida albicans after overnight incubation by microtiter dilution method; assay type: functional
# Erythrocyte [23] = assay: Haemolytic activity in human RBC after 24 hrs by visual method; assay type: ADME, cell-based
# [24] = Therapeutic index, ratio of HD100 for hemolytic activity in human RBC to MIC against Enterococcus faecalis ATCC 29212; assay type: toxicity; conditions: human red blood cells, read-out: TI
# [25] = Haemolytic activity in human erythrocytes at 100 ug/ml after 30 mins relative to control; assay type: ADME, cell-based, Erythrocyte; conditions: read-out: Activity
# Escherichia coli [26] = assay: Antibacterial activity against Escherichia coli ATCC 8739 incubated for 48 hrs; assay type: functional; conditions: ATCC 8739, 48 h
# Bacillus subtilis = assay: Antibacterial activity against Bacillus subtilis CIP 52.65 incubated for 48 hrs; assay type: functional; conditions: CIP 52.65, 48 h
# Staphylococcus aureus [27] = assay: Antibacterial activity against Staphylococcus aureus ATCC 6538 incubated for 48 hrs; assay type: functional; conditions: ATCC 6538, 48 h
# Pseudomonas aeruginosa [28] = assay: Antibacterial activity against Pseudomonas aeruginosa ATCC 9027 incubated for 48 hrs; assay type: functional; conditions: ATCC 9027, 48 h
smiles,measurement,setting,value
CC(C)C[C@@H]1NC(=O)[C@@H](CCCN)NC(=O)[C@H](C(C)C)NC(=O)c2cccc(c2)/N=N\c2ccc(cc2)CNC(=O)[C@H](CCCN)NC(=O)[C@H](C(C)C)NC(=O)[C@@H]2CCCN2C(=O)[C@@H](Cc2ccccc2)NC1=O,MIC,Staphylococcus aureus [1],64 µg/mL
CC(C)C[C@@H]1NC(=O)[C@H](CCCN)NC(=O)[C@H](C(C)C)NC(=O)[C@@H]2CCCN2C(=O)[C@@H](Cc2ccccc2)NC(=O)[C@H](CC(C)C)NC(=O)[C@H](CCCN)NC(=O)[C@H](C(C)C)NC(=O)[C@H](CCCN)NC(=O)[C@H](CC(C)C)NC(=O)[C@H]2CC[C@H](OCc3ccccc3)[C@@H](CNC(=O)[C@H](C(C)C)NC(=O)[C@H](CCCN)NC1=O)O2,Activity,Erythrocyte [2],62.5 µg/mL
same,MIC,Staphylococcus aureus [3],4 µg/mL
same,MIC,Escherichia coli [4],16 µg/mL
same,selectivity ratio,[5],15.6
same,selectivity ratio,[6],7.8
same,selectivity ratio,[7],3.9
same,MIC,Pseudomonas aeruginosa [8],8 µg/mL
same,MIC,Enterococcus faecalis [9],8 µg/mL
same,selectivity ratio,[10],7.8
NCCC[C@@H]1NC(=O)[C@H](C23CC4CC(CC(C4)C2)C3)NC(=O)[C@@H]2CCCN2C(=O)[C@@H](Cc2ccccc2)NC(=O)[C@H](C23CC4CC(CC(C4)C2)C3)NC(=O)[C@H](CCCN)NC(=O)[C@H](C23CC4CC(CC(C4)C2)C3)NC(=O)[C@@H]2CCCN2C(=O)[C@@H](Cc2ccccc2)NC(=O)[C@H](C23CC4CC(CC(C4)C2)C3)NC1=O,HC50 at 4 h,[11],7.55 µg/mL
CC(C)C[C@@H]1NC(=O)[C@H](CCCN)NC(=O)[C@H](C(C)C)NC(=O)[C@@H]2CCCN2C(=O)[C@@H](Cc2ccccc2)NC(=O)[C@H](CC(C)C)NC(=O)[C@H](CCCN)NC(=O)[C@H](C(C)C)NC(=O)C2=CC3=C4CCCC4=C4C=C(SC4(C)C3(C)S2)C(=O)NNC1=O (some centres not stated) [listing 1 of 2 here],HC50,[12],58 µg/mL
CC(C)C[C@@H]1NC(=O)[C@H](CCCN)NC(=O)[C@H](C(C)C)NC(=O)[C@@H]2CCCN2C(=O)[C@@H](Cc2ccccc2)NC(=O)[C@H](CC(C)C)NC(=O)[C@H](CCCN)NC(=O)[C@H](C(C)C)NC(=O)C2=CC3=C4CCCC4=C4C=C(SC4(C)C3(C)S2)C(=O)NNC1=O (some centres not stated) [listing 2 of 2 here],MIC,Staphylococcus xylosus,32 µg/mL
same,MIC,[13],32 µg/mL
same,MIC,Staphylococcus aureus [14],16 µg/mL
CC(C)C[C@@H]1NC(=O)[C@H](CCCCN)NC(=O)[C@H](C(C)C)NC(=O)[C@@H]2CCCN2C(=O)[C@@H](Cc2ccc(O)cc2)NC(=O)[C@H](CC(C)C)NC(=O)[C@H](CCCCN)NC(=O)[C@H](C(C)C)NC(=O)[C@H](CCCCN)NC(=O)[C@H](CC(C)C)NC(=O)[C@@H]2CCCN2C(=O)[C@@H](Cc2ccc(O)cc2)NC(=O)[C@H](C(C)C)NC(=O)[C@@H](CCCCN)NC1=O (cyclo(KL[dK]V[dY]PLKVKL[dY]PV)),selectivity ratio,[15],8
same,selectivity ratio,[16],32
same,selectivity ratio,[17],2
same,MIC,Pseudomonas aeruginosa [18],25 µg/mL
same,MIC,Enterococcus faecalis [19],1.5 µg/mL
same,selectivity ratio,[20],32
same,MIC,Staphylococcus aureus [21],100 µg/mL
same,MIC,Escherichia coli [22],6.2 µg/mL
same,IC50,Lipopolysaccharide (LPS),93 µM
same,MIC,Candida albicans,6.2 µg/mL
same,HD100,Erythrocyte [23],200 µg/mL
same,selectivity ratio,[24],133
Cc1nc2c(s1)C(=O)N[C@@H](C(C)C)C(=O)N[C@@H](CCCN)C(=O)N[C@@H](CC(C)C)C(=O)N[C@H](Cc1ccccc1)c1nc(C)sc1C(=O)N[C@@H](C(C)C)C(=O)N[C@@H](CCCN)C(=O)N[C@@H](CC(C)C)C(=O)N[C@@H]2Cc1ccccc1 (cyclo(L[X1]V[Orn]L[X1]V[Orn])),"hemolysis at 0.5 h, 100 ug/ml",[25],14%
same,MIC,Escherichia coli [26],25 µg/mL
same,MIC,Bacillus subtilis,3.12 µg/mL
same,MIC,Staphylococcus aureus [27],4.68 µg/mL
same,MIC,Pseudomonas aeruginosa [28],> 50 µg/mL

# From ChEMBL document CHEMBL4376803, “Recent Advances in the Exploration of Therapeutic Analogues of Gramicidin S, an Old but Still Potent Antimicrobial Peptide” (J Med Chem, 2019)
